Target: T1, ERα (Homo sapiens, UniProt P03372)
T1 construct: host or cells: MCF7
T1 sequence (P03372 1-595): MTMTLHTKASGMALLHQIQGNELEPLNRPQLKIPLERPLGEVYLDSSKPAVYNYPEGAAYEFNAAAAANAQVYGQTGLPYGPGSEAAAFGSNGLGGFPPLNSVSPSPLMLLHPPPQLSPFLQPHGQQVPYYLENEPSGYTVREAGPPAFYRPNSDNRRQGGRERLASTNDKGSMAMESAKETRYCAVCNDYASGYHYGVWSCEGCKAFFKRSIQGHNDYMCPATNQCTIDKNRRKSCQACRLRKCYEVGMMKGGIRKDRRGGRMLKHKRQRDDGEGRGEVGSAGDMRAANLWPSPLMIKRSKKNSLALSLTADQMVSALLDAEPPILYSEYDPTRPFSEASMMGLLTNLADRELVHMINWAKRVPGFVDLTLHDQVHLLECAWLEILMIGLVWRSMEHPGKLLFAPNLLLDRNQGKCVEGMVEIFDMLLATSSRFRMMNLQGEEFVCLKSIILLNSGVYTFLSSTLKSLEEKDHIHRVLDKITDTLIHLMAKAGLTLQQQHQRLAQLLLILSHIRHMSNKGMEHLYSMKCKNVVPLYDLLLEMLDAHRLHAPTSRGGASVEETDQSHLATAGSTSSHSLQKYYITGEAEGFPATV
Assay: Estrogen receptor degradation activity: breast cancer cell ERα in cell western assay (MCF7 cells)
Type: cell-based
Settings: for % Degradation At 0.3 μM: 4 hours, relative to fulvestrant 0.1 μM positive control; for DC50: 4 hours post compound addition, concentration which degrades 50% of the estrogen receptor, read-out: Degradation IC50
Procedure: Test: Estrogen Receptor Degradation Activity Said test involves measuring the in vitro degradation activity of the compounds of the Table 1a. The measurements of the degradation activities were made using a breast cancer cell ERα in cell western assay as described hereunder. MCF7 cells (ATCC) were seeded in 384 wells microplate (collagen coated) at a concentration of 10000 cells/30 μL per well in red phenol free MEM alpha medium (invitrogen) containing 5% charcoal dextran striped FBS. The following day, 9 points serial 1:5 dilution of each compound was added to the cells in 2.5p L at final concentrations ranging from 0.3-0.0000018 μM (in table 2), or 0.1 μM for fulvestrant (using as positive control). At 4 hours post compound addition the cells were fixed by adding 25 μL of formalin (final concentration 5% formalin containing 0.1% triton) for 10 minutes at room temperature and then washed twice with PBS. Then, 50 μL of LI-COR blocking buffer containing 0.1% Triton was added to plate for 30 minutes at room temperature. LI-COR blocking buffer was removed and cells were incubated overnight at cold room with 50 μL anti-ER rabbit monoclonal antibody (Thermo scientific MA1-39540) diluted at 1:1000 in LI-COR blocking buffer containing 0.1% tween-20. Wells which were treated with blocking buffer but no antibody were used as background control. Wells were washed twice with PBS (0.1% tween-20) and incubated at 37° C. for 60 minutes in LI-COR (0.1% tween-20) containing goat anti-rabbit antibody Alexa 488 (1:1000) and Syto-64 a DNA dye (2 μM final concentration). Cells were then washed 3 times in PBS and scanned in ACUMEN explorer (TTP-Labtech). Integrated intensities in the green fluorescence and red fluorescence were measured to determine the levels of ERα and DNA respectively. The degradation activity with respect to estrogen receptors in this test is given by the concentration which degrades 50% of the estrogen receptor (or IC50) in nM. […] DMSO−fulvestrant)).

% Degradation At 0.3 μM | DC50 | SMILES
84% | 0.4 nM | O=C(O)c1ccc2c(c1)CCCC(C1CC3CCC1C3)=C2c1ccc(CC2CN(CCCF)C2)cc1 (mixture of isomers) [Example 307, 8-(bicyclo[2.2.1]heptan-2-yl)-9-(4-((1-(3-fluoropropyl)azetidin-3-yl)methyl)phenyl)-6,7-dihydro-5H-benzo[7]annulene-3-carboxylic acid]
88% | 0.4 nM | Cc1c(F)ccc(C2=C(c3ccc(CC4CN(CCCF)C4)cc3)c3ccc(C(=O)O)cc3CCC2C)c1C (racemic) [Example 309, 8-(4-fluoro-2,3-dimethylphenyl)-9-(4-((1-(3-fluoropropyl)azetidin-3-yl)methyl)phenyl)-7-methyl-6,7-dihydro-5H-benzo[7]annulene-3-carboxylic acid]
85% | 0.4 nM | Cc1c(C2=C(c3ccc(CC4CN(CCCF)C4)cc3)c3ccc(C(=O)O)cc3CCC2C)cccc1C(F)(F)F (racemic) [Example 310, 9-(4-((1-(3-fluoropropyl)azetidin-3-yl)methyl)phenyl)-7-methyl-8-(2-methyl-3-(trifluoromethyl)phenyl)-6,7-dihydro-5H-benzo[7]annulene-3-carboxylic acid]
91% | 0.3 nM | CC1CCc2cc(C(=O)O)ccc2C(c2ccc(CC3CN(CCCF)C3)cc2)=C1c1ccc(F)cc1C(F)(F)F (racemic) [Example 312, 8-(4-fluoro-2-(trifluoromethyl)phenyl)-9-(4-((1-(3-fluoropropyl)azetidin-3-yl)methyl)phenyl)-7-methyl-6,7-dihydro-5H-benzo[7]annulene-3-carboxylic acid]
87% | 1 nM | CCC1CCc2cc(C(=O)O)ccc2C(c2ccc(CC3CN(CCCF)C3)cc2)=C1c1ccc(Cl)cc1 (racemic) [Example 315, 8-(4-chlorophenyl)-7-ethyl-9-(4-((1-(3-fluoropropyl)azetidin-3-yl)methyl)phenyl)-6,7-dihydro-5H-benzo[7]annulene-3-carboxylic acid]
87% | 1.6 nM | CC(C)C1CCc2cc(C(=O)O)ccc2C(c2ccc(CC3CN(CCCF)C3)cc2)=C1c1ccc(Cl)cc1 (racemic) [Example 317, 8-(4-chlorophenyl)-9-(4-((1-(3-fluoropropyl)azetidin-3-yl)methyl)phenyl)-7-isopropyl-6,7-dihydro-5H-benzo[7]annulene-3-carboxylic acid]
86% | 0.8 nM | O=C(O)c1ccc2c(c1)CCC(C1CC1)C(c1ccc(Cl)cc1)=C2c1ccc(CC2CN(CCCF)C2)cc1 (racemic) [Example 324, 8-(4-chlorophenyl)-7-cyclopropyl-9-(4-((1-(3-fluoropropyl)azetidin-3-yl)methyl)phenyl)-6,7-dihydro-5H-benzo[7]annulene-3-carboxylic acid]
89% | 0.5 nM | CC1CCc2cc(C(=O)O)ccc2C(c2ccc(CC3CN(CCCF)C3)cc2)=C1c1ccc(F)cc1 (racemic) [Example 325, 8-(4-fluorophenyl)-9-(4-((1-(3-fluoropropyl)azetidin-3-yl)methyl)phenyl)-7-methyl-6,7-dihydro-5H-benzo[7]annulene-3-carboxylic acid]
91% | 0.7 nM | CC1CCc2cc(C(=O)O)ccc2C(c2ccc(CC3CN(CCCF)C3)cc2)=C1c1ccc(F)c(F)c1 (racemic) [Example 326, 8-(3,4-difluorophenyl)-9-(4-((1-(3-fluoropropyl)azetidin-3-yl)methyl)phenyl)-7-methyl-6,7-dihydro-5H-benzo[7]annulene-3-carboxylic acid]
87% | 0.4 nM | CC1CCc2cc(C(=O)O)ccc2C(c2ccc(CC3CN(CCCF)C3)cc2)=C1c1cccc(C(F)(F)F)c1 (racemic) [Example 333, 9-(4-((1-(3-fluoropropyl)azetidin-3-yl)methyl)phenyl)-7-methyl-8-(3-(trifluoromethyl)phenyl)-6,7-dihydro-5H-benzo[7]annulene-3-carboxylic acid]

Reference: patent US12595230B2, “Substituted 6,7-dihydro-5H-benzo[7]annulene compounds and their derivatives, processes for their preparation and therapeutic uses thereof” (Sanofi, priority 2020, dated 2026)
